Structures can show the parent of a compound that is named as a salt.
Assays:
[1] = system: EAE induced in SJL mice by PLP139-151/CFA immunization; experiment: EAE therapeutic model repeated with greater doses, FTY720 reference (Example 4); type: in vivo, mouse
Experimental: To further explore the effect of dosage, the model was repeated, essentially as described in Example 3, using greater doses, specifically 53 μg of ACTH+27 μg of β-endorphin (low dose), and 128 […] of ACTH+64 μg of β-endorphin (high dose). Additionally FTY720 (fingolimod, an FDA-approved drug for the treatment of multiple sclerosis) was used as a reference (positive control) treatment instead of prednisolone, which had not shown strong efficacy in Example 3. FTY720 is one of the most efficacious drugs in both EAE and MS. Immunization was on Day 0, treatment started on Day 20, and the mice were observed through Day 42.
Histological analysis confirmed the clinical findings (Table 9). Histologic readouts were inflammatory foci per section, demyelination (based on anti-myelin basic protein (MBP) staining), and apoptotic cells per section. […] A low number of inflammatory infiltrates confirms absence of both clinical and subclinical inflammation in the CNS. Histological findings in the high dose test group were generally similar to the FTY720 reference group.

[2] = system: EAE induced by PLP139-151/CFA Emulsion PTX; experiment: EAE prophylactic model, treatment from immunization, with pertussis toxin (Example 5); type: in vivo, mouse; conditions: 3 mg/kg p.o. daily
Experimental: The efficacy of the combination of ACTH and β-endorphin was also tested in a prophylactic model of EAE. In contrast with the therapeutic model used above, in which treatment is initiated only after EAE onset and recovery from the first wave of the disease, in the prophylactic model, treatment is initiated at the time of immunization and the mice are followed for only 3 weeks. Additionally, pertussis toxin (PTX) is used as an additional adjuvant in the immunization, producing a more sever first wave of disease with slower recovery.
Mice were injected subcutaneously at four sites in the back with 0.05 mL of the emulsion component of HOOKE KIT™ PLP139-151/CFA Emulsion PTX (catalog number EK-2120; Hooke Laboratories, Lawrence Mass.). Two sites of injection were in the upper back approximately 1 cm caudal of the neck line. The other two sites were in the lower back approximately 2 cm cranial of the base of the tail. Two hours later the pertussis toxin component of the kit was administered intraperitoneally. A 30 ng dose of PTX was used to attain optimal disease severity. Mice were administered vehicle or 128 μg ACTH+64 μg β-endorphin by subcutaneous injection every 2nd day, as a negative control and test treatment, respectively. As reference treatment (positive control) mice received 3 mg/kg FTY720 daily by oral administration. There were 12 mice in each of these three groups. The vehicle and test treatment groups were dosed from Day 0 through Day 18 (the last dose in the test treatment group was 88 μg ACTH+44 μg β-endorphin due to lab mishap). The reference treatment group was dosed from Day 0 through Day 19. Clinical scoring was as presented in Table 4 (above) beginning on Day 7 and continuing through Day 20.

[3] = system: EAE induced in SJL mice by PLP139-151/CFA immunization; experiment: EAE late therapeutic model of relapsing-remitting multiple sclerosis, treatment from Day 20 (Example 3); type: in vivo, mouse
Experimental: The effect of administration of two dosages of ACTH and β-endorphin on severity and relapse in EAE was evaluated. EAE was induced in SJL mice by PLP139-151/CFA immunization on Day 0. Treatment was late therapeutic, starting on Day 20 after immunization for each mouse. Mice were observed through the end of the study, Day 42 after immunization. Four groups of 20 mice each received one of the following treatments: vehicle (a negative control); 10 mg/kg oral prednisolone daily (reference treatment); 32 μg ACTH+16 μg endorphin by subcutaneous injection, every 2nd day (low dose); or 64 μg ACTH+32 μg β-endorphin by subcutaneous injection, every 2nd day (high dose).
Mice were injected subcutaneously at four sites in the back with emulsion containing PLP139-151 (native sequence) from HOOKE KIT™ PLP139-151/CFA Emulsion, catalog number EK-0120 (Hooke Laboratories, Lawrence Mass.). Two sites of injection were in the upper back approximately 1 cm caudal of the neck line. The other two sites were in the lower back approximately 2 cm cranial of the base of the tail. The injection volume was 0.05 mL at each site. Even without treatment, most mice recover spontaneously after the first wave of disease. In the SJL model, EAE develops 10-15 days after immunization in 90-100% of immunized mice. The first wave of EAE lasts several days and most mice fully or almost fully recover from this first wave. After a disease-free period, which can last from one day to several months, most mice relapse. During the first 5-7 weeks after immunization, 50-100% of mice will develop a relapse. Each wave of paralysis results in body weight loss at onset, most of which is regained at recovery from the wave. The greatest weight loss is during the first wave of EAE. During the chronic phase of disease, the average EAE body weight is relatively stable, with normal slow increase with age. Since individual mice experience relapses at different times, only a few mice in each group are acutely sick at any given time after the first wave of EAE. Therefore, significant differences in relative body weight between groups are often not found after the first wave of disease in this model. In the vehicle treated group, disease developed as expected for this model. Five (5) mice were euthanized on Day 30 for analysis. Relapse occurred in 7 out of the 15 remaining mice, which were followed to Day 42, with typical course and severity of disease.
100 EAE induced mice were initially considered a single group and were scored daily starting on Day 9 after immunization. […]
Treatment started on the day of group assignment (Day 20 after immunization). […] EAE score was determined daily by a person unaware of both treatment and of previous scores for each mouse. Weight was measured 3 times a week. […]

[4] = system: EAE induced by PLP139-151/CFA Emulsion PTX; conditions: past experience with this model; cited from earlier work
[5] = per one mg of ACTH, based on rat potency testing; cited from earlier work

CCCCCCCCc1ccc(CCC(N)(CO)CO)cc1 [FTY720, fingolimod]
Apoptotic cells/section ± SD ([1]; 1 mg/kg p.o. QD): 0.3 ± 0.4 cells/section | Demyelination (anti-MBP) ± SD ([1]; 1 mg/kg p.o. QD): 0.1 ± 0.2 | Incidence of relapse ([1]; 1 mg/kg p.o. QD from Day 20): 12.5% | MMS of relapse period ± SD (Days 20-42) ([1]; 1 mg/kg p.o. QD from Day 20): 1.94 ± 0.50 | End % body weight ± SD ([1]; 1 mg/kg p.o. QD from Day 20, % of starting weight): 97.65 ± 5.3% | End score ± SD ([1]; 1 mg/kg p.o. QD from Day 20, Day 42): 1.06 ± 0.62 | Inflammatory foci/section ± SD ([1]; 1 mg/kg p.o. QD, spinal cord histology): 0.5 ± 0.4 foci/section | End % body weight ± SD ([2]; Day 0-19): 98.3% ± 7.8% | MMS ± SD ([2]; Day 0-19): 0.92 ± 1.16 | End score ± SD ([2]; Day 0-19, Day 20): 0.79 ± 1.01 | Median day of onset (all mice) ([2]; Day 0-19, cannot be calculated if ≤50% of mice developed disease): >20.0^1 | EAE incidence (%) ([2]; Day 0 through Day 19, scored through Day 20): 41.7%

C[C@]12C=CC(=O)C=C1CC[C@@H]1[C@@H]2[C@@H](O)C[C@@]2(C)[C@H]1CC[C@]2(O)C(=O)CO [Prednisolone, prednisolone]
Change in body weight versus vehicle control (FIG. 2) ([3]; 10 mg/kg p.o. daily): statistically significant loss of weight versus the vehicle control | MMS of relapse period ± SD (Days 25-42) ([3]; 10 mg/kg p.o. daily from Day 20, mean maximal score): 2.07 | Iba1 ± SD (% of area) ([3]; 10 mg/kg p.o. daily, microglial activation, % of total spinal cord area): 4.0 ± 1.2 % of area | Mean clinical score over the course of the study (FIG. 1), compared to vehicle ([3]; reference treatment 10 mg/kg p.o. daily): more moderate benefit

COC(=O)/C=C/C(=O)OC [TECFIDERA®, dimethyl fumarate]
Complete suppression of development of EAE [4]: neither COPAXONE® (glatiramer acetate injection) nor TECFIDERA® (dimethyl fumarate) completely suppressed development of EAE

ACTH: 39 amino acid peptide, adrenocorticotropic hormone (SYSMEHFRWGKPVGKKRRPVKVYPNGAEDESAEAFPLEF; Corticotropin; UniProt P01189 138-176, looked up)
Potency of ACTH in units [5]: about 150 units
